Reference: patent US11052092B2, “N-{[2-(piperidin-1-yl)phenyl](phenyl)methyl}-2-(3-oxo-3,4-dihydro-2H-1,4-benzoxazin-7-yl)acetamide derivatives and related compounds as ROR-gamma modulators for treating autoimmune diseases” (Genfit, priority 2017, dated 2021)
Where a name gives a salt, the structure may show the parent alone.

First: CNS(=O)(=O)c1c[nH]c2ccc(CC(=O)NC(c3ccc(C)o3)c3ccc(C)cc3N3CCCCC3)cc12 (stereo not shown) (as salt: HCl) [Cpd. 115, N-{[4-methyl-2-(piperidin-1-yl)phenyl](5-methylfuran-2-yl)methyl}-2-[3-(methylsulfamoyl)-1H-indol-5-yl]acetamide]
Second: Cc1ccc(C(NC(=O)Cc2ccc3[nH]cc(C(=O)N4CCOCC4)c3c2)c2ccc(C)o2)c(N2CCCCC2)c1 (stereo not shown) (as salt: HCl) [Cpd. 120, N-{[4-methyl-2-(piperidin-1-yl)phenyl](5-methylfuran-2-yl)methyl}-2-[3-(morpholine-4-carbonyl)-1H-indol-5-yl]acetamide]
The melting point of the first is lower: 119 °C for the first, 124 °C for the second.

Going from `COCC(=O)N1Cc2ccc(C3(C(=O)NC(c4ccc(C)o4)c4ccc(C)cc4C)CC3)cc2C1` (stereo not shown) (as salt: HCl) [Cpd. 122, N-[(2,4-dimethylphenyl)(5-methylfuran-2-yl)methyl]-1-[2-(2-methoxyacetyl)-2,3-dihydro-1H-isoindol-5-yl]cyclopropane-1-carboxamide] to `CC(=O)N1Cc2ccc(C3(C(=O)NC(c4ccc(C)o4)c4ccc(C)cc4C)CC3)cc2C1` (stereo not shown) (as salt: HCl) [Cpd. 127, 1-(2-acetyl-2,3-dihydro-1H-isoindol-5-yl)-N-[(2,4-dimethylphenyl)(5-methylfuran-2-yl)methyl]cyclopropane-1-carboxamide], the melting point rises from 55 °C to 72 °C.

First: Cc1ccc(C(NC(=O)Cc2ccc3c(c2)CCN3C(=O)C2CC2)c2ccc(C)o2)c(N2CCCCC2)c1 (stereo not shown) (as salt: HCl) [Cpd. 123, 2-(1-cyclopropanecarbonyl-2,3-dihydro-1H-indol-5-yl)-N-{[4-methyl-2-(piperidin-1-yl)phenyl](5-methylfuran-2-yl)methyl}acetamide]
Second: CC(=O)N1CCc2cc(C3(C(=O)NC(c4ccc(C)o4)c4ccc(C)cc4C)CC3)ccc21 (stereo not shown) (as salt: HCl) [Cpd. 126, 1-(1-acetyl-2,3-dihydro-1H-indol-5-yl)-N-[(2,4-dimethylphenyl)(5-methylfuran-2-yl)methyl]cyclopropane-1-carboxamide]
The melting point of the first is higher: 94 °C for the first, 75 °C for the second.

Going from `Cc1ccc(C(NC(=O)C2(c3ccc4c(c3)OCS(=O)(=O)N4)CC2)c2ccc(C)o2)c(C)c1` (stereo not shown) (as salt: HCl) [Cpd. 124, N-[(2,4-dimethylphenyl)(5-methylfuran-2-yl)methyl]-1-(2,2-dioxo-1,3-dihydro-4,2,1-benzoxathiazin-6-yl)cyclopropane-1-carboxamide] to `Cc1ccc(C(NC(=O)C2(c3ccc4c(c3)OCS(=O)(=O)N4)CC2)c2ccc(Cl)o2)c(C)c1` (stereo not shown) (as salt: HCl) [Cpd. 149, N-[(5-chlorofuran-2-yl)(2,4-dimethylphenyl)methyl]-1-(2,2-dioxo-1,3-dihydro-4,2,1-benzoxathiazin-6-yl)cyclopropane-1-carboxamide], the melting point rises from 96 °C to 102 °C.

First: Cc1ccc(C(NC(=O)C2(c3ccc4c(c3)C(=O)C(=O)N4)CC2)c2ccc(C)o2)c(C)c1 (stereo not shown) (as salt: HCl) [Cpd. 125, N-[(2,4-dimethylphenyl)(5-methylfuran-2-yl)methyl]-1-(2,3-dioxo-2,3-dihydro-1H-indol-5-yl)cyclopropane-1-carboxamide]
Second: Cc1ccc(C(NC(=O)C2(c3ccc4c(c3)C(C)(C)C(=O)N4)CC2)c2ccc(C)o2)c(C)c1 (stereo not shown) (as salt: HCl) [Cpd. 146, 1-(3,3-dimethyl-2-oxo-2,3-dihydro-1H-indol-5-yl)-N-[(2,4-dimethylphenyl)(5-methylfuran-2-yl)methyl]cyclopropane-1-carboxamide]
The melting point of the first is higher: 192 °C for the first, 82 °C for the second.

First: Cc1ccc(C(NC(=O)C2(c3ccc4c(c3)CC(=O)N4C)CC2)c2ccc(C)o2)c(C)c1 (stereo not shown) (as salt: HCl) [Cpd. 130, N-[(2,4-dimethylphenyl)(5-methylfuran-2-yl)methyl]-1-(1-methyl-2-oxo-2,3-dihydro-1H-indol-5-yl)cyclopropane-1-carboxamide]
Second: Cc1ccc(C(NC(=O)C2(c3ccc4c(c3)CCC4=O)CC2)c2ccc(C)o2)c(C)c1 (stereo not shown) (as salt: HCl) [Cpd. 141, N-[(2,4-dimethylphenyl)(5-methylfuran-2-yl)methyl]-1-(1-oxo-2,3-dihydro-1H-inden-5-yl)cyclopropane-1-carboxamide]
The melting point of the first is higher: 72 °C for the first, 56 °C for the second.

Going from `CCN1c2ccc(C3(C(=O)NC(c4ccc(C)o4)c4ccc(C)cc4C)CC3)cc2CS1(=O)=O` (stereo not shown) (as salt: HCl) [Cpd. 132, N-[(2,4-dimethylphenyl)(5-methylfuran-2-yl)methyl]-1-(1-ethyl-2,2-dioxo-1,3-dihydro-2,1-benzothiazol-5-yl)cyclopropane-1-carboxamide] to `Cc1ccc(C(NC(=O)C2(c3ccc4c(c3)CS(=O)(=O)N4CC3CCOCC3)CC2)c2ccc(C)o2)c(C)c1` (stereo not shown) (as salt: HCl) [Cpd. 157, N-[(2,4-dimethylphenyl)(5-methylfuran-2-yl)methyl]-1-[1-(oxan-4-ylmethyl)-2,2-dioxo-1,3-dihydro-2,1-benzothiazol-5-yl]cyclopropane-1-carboxamide], the melting point rises from 68 °C to 76 °C.

Compared with `Cc1ccc(C(NC(=O)C2(c3ccc4c(c3)CS(=O)(=O)N4C)CC2)c2ccc(C)o2)c(N(C)C)c1` (stereo not shown) (as salt: HCl) [Cpd. 133, N-{[2-(dimethylamino)-4-methylphenyl](5-methylfuran-2-yl)methyl}-1-(1-methyl-2,2-dioxo-1,3-dihydro-2,1-benzothiazol-5-yl)cyclopropane-1-carboxamide], `Cc1ccc(C(NC(=O)C2(c3ccc4c(c3)OCS(=O)(=O)N4)CC2)c2ccc(C)o2)c(N(C)C)c1` (stereo not shown) (as salt: HCl) [Cpd. 148, N-{[2-(dimethylamino)-4-methylphenyl](5-methylfuran-2-yl)methyl}-1-(2,2-dioxo-1,3-dihydro-4,2,1-benzoxathiazin-6-yl)cyclopropane-1-carboxamide] is higher in melting point: 73 °C for the first, 105 °C for the second.

Compared with `Cc1ccc(C(NC(=O)C2(c3ccc4c(c3)OCC(=O)N4)CC2)c2ccc(C)o2)c(Br)c1` (stereo not shown) (as salt: HCl) [Cpd. 135, N-[(2-bromo-4-methylphenyl)(5-methylfuran-2-yl)methyl]-1-(3-oxo-3,4-dihydro-2H-1,4-benzoxazin-7-yl)cyclopropane-1-carboxamide], `Cc1ccc(C(NC(=O)C2(c3ccc4c(c3)OCC(=O)N4)CC2)c2ccc(C)o2)c(N(C)C)c1` (stereo not shown) (as salt: HCl) [Cpd. 156, N-{[2-(dimethylamino)-4-methylphenyl](5-methylfuran-2-yl)methyl}-1-(3-oxo-3,4-dihydro-2H-1,4-benzoxazin-7-yl)cyclopropane-1-carboxamide] is higher in melting point: 82 °C for the first, 99 °C for the second.

Going from `Cc1ccc(C(NC(=O)C2(c3ccc4c(c3)OCC(=O)N4)CC2)c2cccc(C)n2)c(C)c1` (stereo not shown) (as salt: HCl) [Cpd. 136, N-[(2,4-dimethylphenyl)(6-methylpyridin-2-yl)methyl]-1-(3-oxo-3,4-dihydro-2H-1,4-benzoxazin-7-yl)cyclopropane-1-carboxamide] to `Cc1ccc(C(NC(=O)C2(c3ccc4c(c3)OCC(=O)N4)CC2)c2ccco2)c(C)c1` (stereo not shown) (as salt: HCl) [Cpd. 139, N-[(2,4-dimethylphenyl)(furan-2-yl)methyl]-1-(3-oxo-3,4-dihydro-2H-1,4-benzoxazin-7-yl)cyclopropane-1-carboxamide], the melting point rises from 94 °C to 180 °C.

Going from `Cc1ccc(C(NC(=O)C2(c3ccc4c(c3)OCC(=O)N4)CC2)c2ccc(Cl)cc2)c(C)c1` (stereo not shown) (as salt: HCl) [Cpd. 140, N-[(4-chlorophenyl)(2,4-dimethylphenyl)methyl]-1-(3-oxo-3,4-dihydro-2H-1,4-benzoxazin-7-yl)cyclopropane-1-carboxamide] to `Cc1ccc(C(NC(=O)C2(c3ccc4c(c3)OCC(=O)N4)CC2)c2cccc(Cl)c2)c(C)c1` (stereo not shown) (as salt: HCl) [Cpd. 143, N-[(3-chlorophenyl)(2,4-dimethylphenyl)methyl]-1-(3-oxo-3,4-dihydro-2H-1,4-benzoxazin-7-yl)cyclopropane-1-carboxamide], the melting point rises from 99 °C to 181 °C.

Going from `Cc1ccc(C(NC(=O)C2(c3ccc4c(n3)OCC(=O)N4)CC2)c2ccc(C)o2)c(C)c1` (stereo not shown) (as salt: HCl) [Cpd. 144, N-[(2,4-dimethylphenyl)(5-methylfuran-2-yl)methyl]-1-{2-oxo-1H,2H,3H-pyrido[2,3-b][1,4]oxazin-6-yl}cyclopropane-1-carboxamide] to `Cc1ccc(C(NC(=O)C2(c3ccc4c(c3)C(F)(F)C(=O)N4)CC2)c2ccc(C)o2)c(C)c1` (stereo not shown) (as salt: HCl) [Cpd. 159, 1-(3,3-difluoro-2-oxo-2,3-dihydro-1H-indol-5-yl)-N-[(2,4-dimethylphenyl)(5-methylfuran-2-yl)methyl]cyclopropane-1-carboxamide], the melting point rises from 84 °C to 177 °C.

First: Cc1ccc(C(NC(=O)C2(c3ccc4c(c3)OCC(=O)N4)CC2)c2ccc(Cl)o2)c(N2CCCCC2)c1 (stereo not shown) (as salt: HCl) [Cpd. 145, N-[(5-chlorofuran-2-yl)[4-methyl-2-(piperidin-1-yl)phenyl]methyl]-1-(3-oxo-3,4-dihydro-2H-1,4-benzoxazin-7-yl)cyclopropane-1-carboxamide]
Second: COc1ccc(C(NC(=O)C2(c3ccc4c(c3)OCS(=O)(=O)N4)CC2)c2ccc(C)o2)c(Br)c1 (stereo not shown) (as salt: HCl) [Cpd. 147, N-[(2-bromo-4-methoxyphenyl)(5-methylfuran-2-yl)methyl]-1-(2,2-dioxo-1,3-dihydro-4,2,1-benzoxathiazin-6-yl)cyclopropane-1-carboxamide]
The melting point of the first is higher: 199 °C for the first, 115 °C for the second.

Going from `Cc1cnc(C(NC(=O)C2(c3ccc4c(c3)OCS(=O)(=O)N4)CC2)c2ccc(C)o2)c(C)c1` (stereo not shown) (as salt: HCl) [Cpd. 153, N-[(3,5-dimethylpyridin-2-yl)(5-methylfuran-2-yl)methyl]-1-(2,2-dioxo-1,3-dihydro-4,2,1-benzoxathiazin-6-yl)cyclopropane-1-carboxamide] to `Cc1ccc(C(NC(=O)C2(c3cc(F)c4c(c3)CC(=O)N4)CC2)c2ccc(C)o2)c(C)c1` (stereo not shown) (as salt: HCl) [Cpd. 158, N-[(2,4-dimethylphenyl)(5-methylfuran-2-yl)methyl]-1-(7-fluoro-2-oxo-2,3-dihydro-1H-indol-5-yl)cyclopropane-1-carboxamide], the melting point falls from 189 °C to 102 °C.
